Assay results: patent US4731363A, “Thromboxane synthase inhibitors as insulin lowering agents and antiobesity agents” (priority 1986, dated 1988)

Columns and labels:
[1] = target: T1, thromboxane synthase (Guinea Pig Lung Microsomes) (Cavia porcellus, UniProt H0UT36); test: biochemical; settings: enzyme source G = Guinea Pig Lung Microsomes; read-out: IC50
T1 construct: The lungs were removed, freed of trachea and the majority of blood removed by rinsing the lungs with buffer; from tissue; host or cells: lungs of male guinea pigs (microsomes, 110,000 g pellet)
T1 sequence (H0UT36 entry or part of it): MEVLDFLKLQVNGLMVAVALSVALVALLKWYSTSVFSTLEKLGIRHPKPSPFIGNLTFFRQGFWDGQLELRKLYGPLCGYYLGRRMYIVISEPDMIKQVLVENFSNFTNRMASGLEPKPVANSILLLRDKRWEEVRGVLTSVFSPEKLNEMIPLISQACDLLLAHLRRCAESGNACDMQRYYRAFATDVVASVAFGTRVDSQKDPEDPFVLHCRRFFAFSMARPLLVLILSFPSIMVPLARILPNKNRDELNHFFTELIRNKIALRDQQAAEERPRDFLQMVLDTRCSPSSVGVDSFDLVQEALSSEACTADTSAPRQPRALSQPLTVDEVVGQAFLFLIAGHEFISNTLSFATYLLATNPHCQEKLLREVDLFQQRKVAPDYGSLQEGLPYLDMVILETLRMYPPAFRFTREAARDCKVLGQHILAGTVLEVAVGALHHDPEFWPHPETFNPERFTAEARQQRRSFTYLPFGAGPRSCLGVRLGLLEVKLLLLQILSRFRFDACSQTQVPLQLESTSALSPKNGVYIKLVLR
Procedure: In said assay procedure, microsomes from guinea pig lung or human platelets are added to an endoperoxide intermediate in prostaglandin biosynthesis and the inhibitor in phosphate buffer solution followed by incubation, extraction and determination of the extent of thromboxane synthase inhibition by TLC with radiochromatographic profile analysis. […]
Isolation of Guinea Pig Lung Microsomes
Four male guinea pigs (.congruent.500 g each) were sacrificed by spinal dislocation. The lungs were removed, freed of trachea and the majority of blood removed by rinsing the lungs with buffer (0.1M phosphate pH 7.5) via the pulmonary artery. The lung tissue (18.3 g total wet wt.), was then minced, suspended in three volumes of buffer and homogenized using, initially, a Brinkmann polytron homogenizer and, finally, a glass-teflon tissue grinder. The homogenate was centrifuged at 12,000 g for 1 hr. and the resultant supernatant recentrifuged at 110,000 g for 1 hr. The 110,000 g pellet was taken up in 10 ml of buffer, divided into 5×2 ml aliquots and stored at -70° until use.
(§1) Low specific activity PGH2 (3.3 μCi/μmole) was obtained from Dr. W. E. M. Lands of the University of Michigan. PGH2 of higher specific activity (16.0 μCi/μmole) was purchased from Ran Biochemicals, Tel-Aviv, Israel.
(§2) The inhibitors tested were prepared as solutions (1-10 mg/ml) in 95% ethanol.
(§3) Assay for Thromboxane Synthase
(§4) To a 12×75 mm tube containing [1-^14 C] PGH2 (2 μg, 0.01 μCi or 0.05 μCi) and inhibitor (1 mM final assay concentration, in 10 μl of ethanol) in 225 μl of phosphate buffer (0.1M, pH 7.5), was added to an aliquot of guinea pig lung microsomes (25 μl, containing 400 μg protein) or an aliquot of human platelet microsomes (25 μl, containing .congruent.[…] protein). The solution was incubated in a 22° water bath for 2 min.; ether (1 ml) and citric acid (25 μMoles) were added, and the tube plunged into an acetone-dry ice bath. The ether extract was transferred to a 1.0 ml Reacti-vial, and the volume reduced under nitrogen to .congruent.50 μl.
(§5) The extract was applied to an I.T.L.C., type SG, glass fiber sheet (Gelman Instrument Co., Ann Arbor, Mich.) and developed in isooctane; methyl ethyl ketone: acetic acid (100:19:1 or 100:9:1) (19). The sheets were air dried and scanned using a Berthold LB 2760 Radiochromatographic Scanner. In certain cases, based on the radiochromatographic profile obtained, the sheets were cut, the appropriate regions placed in scintillation vials, 10 ml of LSC cocktail (Yorktown Research, S. Hackensack, NJ) added, and the relative cpm determined.

[2] = target: T2, thromboxane synthase (Human Platelet Microsomes) (Homo sapiens, UniProt P24557); test: Thromboxane synthase inhibition, human platelet microsomes; type: biochemical; settings: enzyme source H = Human Platelet Microsomes; read-out: IC50
T2 construct: Platelets were obtained from 320 ml of whole blood and resuspended in 5.0 ml of Krebs-Hensleit buffer; from tissue; host or cells: human platelets (microsomes, 110,000 g pellet)
T2 sequence (P24557 1-533): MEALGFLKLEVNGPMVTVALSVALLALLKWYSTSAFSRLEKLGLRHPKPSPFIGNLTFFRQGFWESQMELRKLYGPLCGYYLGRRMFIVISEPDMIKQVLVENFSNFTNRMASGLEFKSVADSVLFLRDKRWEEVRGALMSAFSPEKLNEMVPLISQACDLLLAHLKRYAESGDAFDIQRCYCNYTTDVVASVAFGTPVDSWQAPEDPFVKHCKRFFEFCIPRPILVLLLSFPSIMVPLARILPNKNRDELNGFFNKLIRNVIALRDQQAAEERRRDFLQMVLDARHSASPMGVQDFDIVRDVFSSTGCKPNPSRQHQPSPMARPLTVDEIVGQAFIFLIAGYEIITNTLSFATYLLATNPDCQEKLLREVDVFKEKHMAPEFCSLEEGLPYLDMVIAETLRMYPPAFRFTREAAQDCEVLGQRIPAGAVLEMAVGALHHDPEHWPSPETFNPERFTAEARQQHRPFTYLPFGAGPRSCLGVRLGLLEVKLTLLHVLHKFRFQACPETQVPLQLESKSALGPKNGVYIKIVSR
Procedure: In said assay procedure, microsomes from guinea pig lung or human platelets are added to an endoperoxide intermediate in prostaglandin biosynthesis and the inhibitor in phosphate buffer solution followed by incubation, extraction and determination of the extent of thromboxane synthase inhibition by TLC with radiochromatographic profile analysis.
Determination of Inhibition of Thromboxane Synthase Activity Isolation of Human Platelet Microsomes
Platelets were obtained from 320 ml of whole blood and resuspended in 5.0 ml of Krebs-Hensleit buffer (CA^+2 free). After three consecutive freeze-thawing cycles, homogenization and centrifugation at 12,000 g for 45 min., the 12,000 supernatant was recentrifuged at 110,000 g for 60 min. The resultant pellet was resuspended in phosphate buffer (0.5 ml, 0.1M, pH 7.5) and stored at -70° until use.
as §1, §2, §3, §4, §5

IC50 [1]: 1 to 10 µM
IC50 [2]: 1 to 10 µM
Compound: CC(=O)c1ccc(-n2ccnc2)cc1 [1-[4-(1H--imidazol-1-yl)phenyl]ethanone, 1-[4-(1H-imidazol-1-yl)phenyl]ethanone]
